Key:
[1] = set-up: species or system mice; conditions: mouse, in vivo, iv
HO-1 mRNA [2] = assay: Kidney HO-1 mRNA (RT-PCR); format: in vivo, CD-1 mice
Procedure: (§1) Thirty-two mice were divided into 4 equal groups: (1) control mice; (2) mice treated with 1 mg of N-Mgb injection (as a bolus through the tail vein); (3) mice treated with […] of SnPP (via tail vein); and (4) mice treated with combined N-Mgb 1 SnPP. After either 4 hours (n=16) or 18 hours (n=16), the mice were deeply anesthetized with pentobarbital (50 mg/kg), the abdomen was opened through a midline abdominal incision, and the kidneys were removed. To determine potential effects on extrarenal organs, a liver lobe and the heart were also removed. The tissues were iced and then extracted for protein and RNA (RNeasy Plus Mini; Qiagen, Valencia, Calif.) and subjected to enzyme linked immunosorbent assay (ELISA) and reverse transcriptase polymerase chain reaction (RT-PCR) for HO-1, haptoglobin, and IL-10 protein and messenger RNAs (mRNAs). Zager et al. J Am Soc Nephrol 2014; 25:998-1012; Zager et al. Am J Physiol 2012; 303:F139-48. As an assessment of renal function, control mice and the 18 hour after N-Mgb+SnPP-treated mice had blood urea nitrogen (BUN) and plasma creatinine levels measured. Additionally, transverse 10% formalin fixed kidney sections ([…]) were cut and stained with hematoxylin and eosin (H&E) and periodic acid Schiff (PAS) to further assess potential injury.

haptoglobin mRNA [3] = assay: Kidney haptoglobin mRNA (RT-PCR); format: in vivo, CD-1 mice
Procedure: as §1

IL-10 mRNA [4] = assay: Kidney IL-10 mRNA (RT-PCR); format: in vivo, CD-1 mice
Procedure: as §1

HO-1 protein [5] = assay: Kidney HO-1 protein (ELISA); format: in vivo, CD-1 mice
Procedure: as §1

haptoglobin protein [6] = assay: Kidney haptoglobin protein (ELISA); format: in vivo, CD-1 mice
Procedure: as §1

HO-1 mRNA [7] = assay: Liver HO-1 mRNA (RT-PCR); format: in vivo, CD-1 mice
Procedure: as §1

haptoglobin mRNA [8] = assay: Liver haptoglobin mRNA (RT-PCR); format: in vivo, CD-1 mice
Procedure: as §1

IL-10 mRNA [9] = assay: Liver IL-10 mRNA (RT-PCR); format: in vivo, CD-1 mice
Procedure: as §1

HO-1 protein [10] = assay: Liver HO-1 protein (ELISA); format: in vivo, CD-1 mice; set-up: unit not given beside the values
Procedure: as §1

haptoglobin protein [11] = assay: Liver haptoglobin protein (ELISA); format: in vivo, CD-1 mice; set-up: unit not given beside the values
Procedure: as §1

IL-10 protein [12] = assay: Liver IL-10 protein (ELISA); format: in vivo, CD-1 mice
Procedure: as §1

HO-1 mRNA [13] = assay: Cardiac HO-1 mRNA (RT-PCR); format: in vivo, CD-1 mice
Procedure: as §1

haptoglobin mRNA [14] = assay: Cardiac haptoglobin mRNA (RT-PCR); format: in vivo, CD-1 mice
Procedure: as §1

IL-10 mRNA [15] = assay: Cardiac IL-10 mRNA (RT-PCR); format: in vivo, CD-1 mice
Procedure: as §1

HO-1 protein [16] = assay: Cardiac HO-1 protein (ELISA); format: in vivo, CD-1 mice; conditions: 18 h after IV injection
Procedure: as §1

haptoglobin protein [17] = assay: Cardiac haptoglobin protein (ELISA); format: in vivo, CD-1 mice
Procedure: as §1

IL-10 protein [18] = assay: Cardiac IL-10 protein (ELISA); format: in vivo, CD-1 mice
Procedure: as §1

HO-1 mRNA [19] = assay: SnPP vs. SnMeP: renal cortical HO-1 mRNA induction (RT-PCR); format: in vivo, mice; conditions: 1 umole, 4 hrs post injection, n 3
From the text: (§2) FIG. 28. Comparison of SnPP vs. SnMeP effects on renal cortical HO-1 and haptoglobin mRNA induction 4 hrs post agent injection. Mice received either 1 umole tin protoporphyrin (SnPP), tin mesoporphyrin (SnMeP), or vehicle (n, 3 each) and 4 hrs renal cortical RNA was extracted and subjected to RT-PCR.

haptoglobin mRNA [20] = assay: SnPP vs. SnMeP: renal cortical haptoglobin mRNA induction (RT-PCR); format: in vivo, mice; conditions: 1 umole, 4 hrs post injection, n 3
From the text: as §2

ferritin heavy chain = assay: Kidney ferritin heavy chain expression (Western blotting); format: in vivo, mice; conditions: 18 hrs following 1 umole SnPP, 1 mg FeS or combined
Procedure: FIG. 32. Ferritin heavy chain expression (as determined by Western blotting) in kidneys 18 hrs following 1 umole tin protoporphyrin (SnPP), 1 mg Fe sucrose (FeS) or combined SnPP+FeS treatment.

[21] = system: Mgb-exposed cultured proximal tubule (HK-2) cells; conditions: Zager & Burkhart, Kidney Int 1997; cited from earlier work
[22] = Berglund 1988; Kappas 1988; Reddy 2003; cited from earlier work
[23] = 4 h after IV injection, N-Mgb 1 mg, SnPP 1 mmol [sic]

For `C=Cc1c2[n-]c(c1C)/C=c1\[n-]/c(c(C)c1C=C)=C\c1[n-]c(c(CCC(=O)O)c1C)/C=c1\[n-]c(c(C)c1CCC(=O)O)=C2.[Sn+4]` [SnPP, tin protoporphyrin], the “Plasma LDH, Average” value [1] was 4.51 Absorbance U LDH/ml, the “Kidney mRNA HO-1” value (HO-1 mRNA [2]; [23]) was 4.38 ± 0.28 and the “Renal HO-1 mRNA increase, in words” value (HO-1 mRNA [2]; 4 hour, agent alone) was “only modest increases”. For the same molecule, the “Kidney mRNA cortex HO-1” value (HO-1 mRNA [2]; 18 h after IV injection) was 0.63 ± 0.06, the “Kidney mRNA Haptoglobin” value (haptoglobin mRNA [3]; [23]) was 0.19 ± 0.01 and the “Kidney mRNA cortex Haptoglobin” value (haptoglobin mRNA [3]; 18 h after IV injection) was 0.23 ± 0.08. The “Impact on renal IL-10 mRNA levels, in words” value (IL-10 mRNA [4]; 4-hour time point, agent alone) was “either minimal or no impact”, the “Kidney mRNA IL-10” value (IL-10 mRNA [4]; [23]) was 0.39 ± 0.15 and the “Kidney mRNA cortex IL-10” value (IL-10 mRNA [4]; 18 h after IV injection) was 0.18 ± 0.09. For the same molecule, the “Renal HO-1 protein increase, in words” value (HO-1 protein [5]; 18-hour time point, agent alone) was “only relatively small HO-1 protein increases”, the “Kidney HO-1 protein” value (HO-1 protein [5]; [23]) was 22.9 ± 2.6 and the “Kidney protein HO-1” value (HO-1 protein [5]; 18 h after IV injection) was 18 ± 2. For the same molecule, the “Kidney Haptoglobin protein” value (haptoglobin protein [6]; [23]) was 13.1 ± 1.3, the “Kidney protein Haptoglobin” value (haptoglobin protein [6]; 18 h after IV injection) was 53.5 ± 17.2 and the “Liver mRNA HO-1” value (HO-1 mRNA [7]; 4 h after IV injection) was 3.15 ± 0.25. For the same molecule, the “Liver mRNA HO-1” value (HO-1 mRNA [7]; 18 h after IV injection) was 2.56 ± 0.21, the “Liver mRNA Haptoglobin” value (haptoglobin mRNA [8]; 4 h after IV injection) was 0.32 ± 0.02 and the “Liver mRNA Haptoglobin” value (haptoglobin mRNA [8]; 18 h after IV injection) was 0.65 ± 0.17. The “Liver mRNA IL-10” value (IL-10 mRNA [9]; 4 h after IV injection) was 0.14 ± 0.1, the “Liver mRNA IL-10” value (IL-10 mRNA [9]; 18 h after IV injection) was 0.05 ± 0.01 and the “Liver protein HO-1” value (HO-1 protein [10]; 4 h after IV injection) was 7.4 ± 0.7. The “Liver protein HO-1” value (HO-1 protein [10]; 18 h after IV injection) was 18 ± 2.5, the “Liver protein Haptoglobin” value (haptoglobin protein [11]; 4 h after IV injection) was 130.0 ± 8.9 and the “Liver protein Haptoglobin” value (haptoglobin protein [11]; 18 h after IV injection) was 212.0 ± 63.6. For the same molecule, the “Liver protein IL-10” value (IL-10 protein [12]; 4 h after IV injection) was 485 ± 47, the “Liver protein IL-10” value (IL-10 protein [12]; 18 h after IV injection) was 8198 ± 725 and the “Cardiac mRNA HO-1” value (HO-1 mRNA [13]; 4 h after IV injection) was 0.14 ± 0.01. The “Cardiac mRNA HO-1” value (HO-1 mRNA [13]; 18 h after IV injection) was 0.09 ± 0.03, the “Cardiac mRNA Haptoglobin” value (haptoglobin mRNA [14]; 4 h after IV injection) was 0.52 ± 0.21 and the “Cardiac mRNA Haptoglobin” value (haptoglobin mRNA [14]; 18 h after IV injection) was 0.59 ± 0.17. The “Cardiac mRNA IL-10” value (IL-10 mRNA [15]; 4 h after IV injection) was 0.58 ± 0.16, the “Cardiac mRNA IL-10” value (IL-10 mRNA [15]; 18 h after IV injection) was 0.53 ± 0.10 and the “Cardiac protein HO-1” value (HO-1 protein [16]) was 2.67 ± 0.4. For the same molecule, the “Cardiac protein Haptoglobin” value (haptoglobin protein [17]; 4 h after IV injection) was 19.1 ± 2.1, the “Cardiac protein Haptoglobin” value (haptoglobin protein [17]; 18 h after IV injection) was 96.1 ± 36.2 and the “Cardiac Protein IL-10” value (IL-10 protein [18]; 4 h after IV injection) was 15.8 ± 10^. The “Cardiac protein IL-10 (L-10 [sic])” value (IL-10 protein [18]; 18 h after IV injection) was 23.4 ± 14^, the “Renal cortical HO-1 mRNA induction” value (HO-1 mRNA [19]) was “raised” and the “Renal cortical haptoglobin mRNA induction” value (haptoglobin mRNA [20]) was “raised”. The “Ferritin heavy chain protein levels in kidney” value (ferritin heavy chain) was “weak effect”, the “Reduction of Mgb toxicity” value [21] was no more than 85% and the Tolerability in humans [22] was “well tolerated in humans”.

— patent publication US20190358242A1, “COMPOSITIONS, KITS, AND METHODS TO INDUCE ACQUIRED CYTORESISTANCE USING STRESS PROTEIN INDUCERS” (FRED HUTCHINSON CANCER RESEARCH CENTER, priority 2017, published 2019)
